# Test results: patent US6239104A, “Isolation and structural elucidation of the cytostatic linear and cyclo-depsipeptides dolastatin 16, dolastatin 17, and dolastatin 18” (priority 1999, dated 2001)
# Starred links: 1 amine or outer side, 2 acyl side, 3 side chain; linkers in the order of their positions; H or OH if unused. Non-standard residues stand in square brackets, D forms with d. Residues, ends and D or L forms follow the SMILES beside them. X1 = CC(Cc1ccccc1)C(N[*:1])C(=O)[*:2]; X2 = CC(C)C(N[*:1])C(C)C(=O)[*:2]; dNMeV = CN[C@@H](C(=O)O)C(C)C; dHiv = CC(C)[C@@H](O)C(=O)O; Lac = C[C@H](O)C(=O)O
# Assays:
# Assay type in all cases: cell-based
# KM 20L2 = assay: NCI human cancer cell line minipanel, colon KM 20L2
# Description: (§1) The administration of Dolastatin 16 is useful for treating neoplastic disease associated with malignant cell growth, and expectedly its synthetic counterpart, as well as, its pharmaceutically and physiologically active derivatives will be useful for treating neoplastic disease associated with malignant cell growth in animals and humans. For example, Dolastatin 16 was screened against a minipanel of the U.S. National Cancer Institute's human cancer cell lines utilizing protocols described by Michael R. Boyd and Kenneth D. Paul in Some Practical Considerations and Applications of the National Cancer Institute In Vitro Anticancer Drug Discovery Screen, 34 DRUG D[…] 91 (1995) (and references cited therein).
# as §1, with “17” for “16”, “91 (1995) (and references cited therein).” left out
# NCI-H460 = assay: NCI human cancer cell line minipanel, lung NCI-H460
# Description: as §1
# as §1, with “17” for “16”, “91 (1995) (and references cited therein).” left out
# SF-295 = assay: NCI human cancer cell line minipanel, brain SF-295
# Description: as §1
# as §1, with “17” for “16”, “91 (1995) (and references cited therein).” left out
# [1] = system: five human leukemia cell lines; assay: NCI screen, five human leukemia cell lines; conditions: in words
# Description: as §1
# [2] = system: complete panel of sixty human cancer cell lines; assay: NCI complete panel of sixty human cancer cell lines
# Description: as §1
# SK-MEL-5 = assay: NCI human cancer cell line minipanel, melanoma SK-MEL-5
# Description: as §1
# [3] = system: a selection of human cancer cell lines, including lung cancer; assay: NCI minipanel, selection of human cancer cell lines; conditions: in words
# Description: as §1, with “18” for “16”
Compound,GI50 (KM 20L2) [ng/mL],GI50 (NCI-H460; lung NCI-H460) [ng/mL],GI50 (SF-295) [ng/mL],growth inhibition [1],GI50 [2] [nM],GI50 (SK-MEL-5) [ng/mL],ED50 (NCI-H460; lung cancer NCI-H460) [ng/mL],growth inhibition [3]
"CC(C)C1NC(=O)[C@@H]2CCCN2C(=O)C(C(C)Cc2ccccc2)NC(=O)[C@@H]2CCCN2C(=O)[C@@H](C(C)C)N(C)C(=O)[C@@H](C(C)C)OC(=O)[C@@H]2CCCN2C(=O)[C@H](C)OC(=O)C1C (some centres unmarked) [Dolastatin 16, cyclo-(Pro^1 --Dpv^2 --Pro^3 --Dml^4 --O--Lac^5 --Pro^6 --O--Hiv^7 --MeVal^8)] (cyclo([Lac]P[dHiv][dNMeV]P[X1]P[X2]))",1.2,0.96,5.2,comparable inhibitory results,250,3.3,–,–
"CCCC(=O)C(C)(C)C(=O)N[C@@H](CC(C)C)C(=O)N(C)[C@H](Cc1ccccc1)C(=O)N[C@@H](Cc1ccccc1)c1nccs1 [Dolastatin 18, Dhex--Leu--MePhe--Doe]",–,–,–,–,–,–,390,significantly inhibit growth
